# Laboratory results: the supplement of paper PMC10307832
# Legend:
# Experiment in all cases: relative viability (nuclei count vs DMSO), 5 days (fraction); higher = more cells survive
# Seliciclib = compound: CC[C@H](CO)Nc1nc(NCc2ccccc2)c2ncn(C(C)C)c2n1 [Seliciclib]
# Procedure, shortened: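 Viability here means nuclei in treated wells divided by nuclei in vehicle wells, reported as the median across plates. Only plates with control CV below 25% and at least one doubling passed. Lung cancer cell lines in 1536-well plates were exposed to five √10-spaced library-drug doses for 5 days and counted from 4× Hoechst images in MetaXpress.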
# Seliciclib + Tozasertib = compound: CC[C@H](CO)Nc1nc(NCc2ccccc2)c2ncn(C(C)C)c2n1 [Seliciclib] + Cc1cc(Nc2cc(N3CCN(C)CC3)nc(Sc3ccc(NC(=O)C4CC4)cc3)n2)n[nH]1 [Tozasertib] (partner 0.1 µM)
# Procedure, shortened: (§1)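 For relative viability, nuclei counts in treated wells were divided by those in vehicle wells. Lung cancer cell lines had been pin-tool dosed in 1536-well plates the day after seeding and cultured for 5 days, then fixed and stained in one step (final 0.05% Triton X-100, 1% formaldehyde, 1 ug/ml Hoechst) and imaged at 4×. Doses were one drug alone or a fixed anchor-drug dose plus five library-drug doses (not always all listed) in √10 steps, and values are duplicate-plate medians.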
# Seliciclib + Foretinib = compound: CC[C@H](CO)Nc1nc(NCc2ccccc2)c2ncn(C(C)C)c2n1 [Seliciclib] + COc1cc2c(Oc3ccc(NC(=O)C4(C(=O)Nc5ccc(F)cc5)CC4)cc3F)ccnc2cc1OCCCN1CCOCC1 [Foretinib] (partner 0.25 µM)
# Procedure, shortened: as §1
# Seliciclib + Dasatinib = compound: CC[C@H](CO)Nc1nc(NCc2ccccc2)c2ncn(C(C)C)c2n1 [Seliciclib] + Cc1nc(Nc2ncc(C(=O)Nc3c(C)cccc3Cl)s2)cc(N2CCN(CCO)CC2)n1 [Dasatinib] (partner 0.075 µM)
# Procedure, shortened: as §1
# Seliciclib + Luminespib = compound: CC[C@H](CO)Nc1nc(NCc2ccccc2)c2ncn(C(C)C)c2n1 [Seliciclib] + CCNC(=O)c1noc(-c2cc(C(C)C)c(O)cc2O)c1-c1ccc(CN2CCOCC2)cc1 [Luminespib] (partner 0.01 µM)
# Procedure, shortened: as §1
# Seliciclib + OSI-027 = compound: CC[C@H](CO)Nc1nc(NCc2ccccc2)c2ncn(C(C)C)c2n1 [Seliciclib] + COc1cccc2cc(-c3nc([C@H]4CC[C@H](C(=O)O)CC4)n4ncnc(N)c34)[nH]c12 [OSI-027] (partner 0.5 µM)
# Procedure, shortened: as §1
# Seliciclib + Phenformin = compound: CC[C@H](CO)Nc1nc(NCc2ccccc2)c2ncn(C(C)C)c2n1 [Seliciclib] + N=C(N)NC(=N)NCCc1ccccc1 [Phenformin] (partner 250 µM)
# Procedure, shortened: as §1
# Seliciclib + Pictilisib = compound: CC[C@H](CO)Nc1nc(NCc2ccccc2)c2ncn(C(C)C)c2n1 [Seliciclib] + CS(=O)(=O)N1CCN(Cc2cc3nc(-c4cccc5[nH]ncc45)nc(N4CCOCC4)c3s2)CC1 [Pictilisib] (partner 1 µM)
# Procedure, shortened: as §1
# Seliciclib + Olaparib = compound: CC[C@H](CO)Nc1nc(NCc2ccccc2)c2ncn(C(C)C)c2n1 [Seliciclib] + O=C(c1cc(Cc2n[nH]c(=O)c3ccccc23)ccc1F)N1CCN(C(=O)C2CC2)CC1 [Olaparib] (partner 8 µM)
# Procedure, shortened: as §1
# Seliciclib + Lapatinib = compound: CC[C@H](CO)Nc1nc(NCc2ccccc2)c2ncn(C(C)C)c2n1 [Seliciclib] + CS(=O)(=O)CCNCc1ccc(-c2ccc3ncnc(Nc4ccc(OCc5cccc(F)c5)c(Cl)c4)c3c2)o1 [Lapatinib] (partner 2 µM)
# Procedure, shortened: as §1
# Seliciclib + Linsitinib = compound: CC[C@H](CO)Nc1nc(NCc2ccccc2)c2ncn(C(C)C)c2n1 [Seliciclib] + C[C@]1(O)C[C@@H](c2nc(-c3ccc4ccc(-c5ccccc5)nc4c3)c3c(N)nccn32)C1 [Linsitinib] (partner 1 µM)
# Procedure, shortened: as §1
# Seliciclib + Crizotinib = compound: CC[C@H](CO)Nc1nc(NCc2ccccc2)c2ncn(C(C)C)c2n1 [Seliciclib] + C[C@@H](Oc1cc(-c2cnn(C3CCNCC3)c2)cnc1N)c1c(Cl)ccc(F)c1Cl [Crizotinib] (partner 1 µM)
# Procedure, shortened: as §1
# Seliciclib + Bortezomib = compound: CC[C@H](CO)Nc1nc(NCc2ccccc2)c2ncn(C(C)C)c2n1 [Seliciclib] + CC(C)C[C@H](NC(=O)[C@H](Cc1ccccc1)NC(=O)c1cnccn1)B(O)O [Bortezomib] (partner 0.002 µM)
# Procedure, shortened: as §1
# Seliciclib + Alpelisib = compound: CC[C@H](CO)Nc1nc(NCc2ccccc2)c2ncn(C(C)C)c2n1 [Seliciclib] + Cc1nc(NC(=O)N2CCC[C@H]2C(N)=O)sc1-c1ccnc(C(C)(C)C(F)(F)F)c1 [Alpelisib] (partner 2 µM)
# Procedure, shortened: as §1
# Seliciclib + Navitoclax = compound: CC[C@H](CO)Nc1nc(NCc2ccccc2)c2ncn(C(C)C)c2n1 [Seliciclib] + CC1(C)CCC(c2ccc(Cl)cc2)=C(CN2CCN(c3ccc(C(=O)NS(=O)(=O)c4ccc(N[C@H](CCN5CCOCC5)CSc5ccccc5)c(S(=O)(=O)C(F)(F)F)c4)cc3)CC2)C1 [Navitoclax] (partner 0.5 µM)
# Procedure, shortened: as §1
cell line,measurement,setting,value
NCI-H1623,relative viability,Seliciclib; 0.08 µM,0.968
same,relative viability,Seliciclib; 0.253 µM,0.867
same,relative viability,Seliciclib; 0.8 µM,0.868
same,relative viability,Seliciclib; 2.53 µM,1.01
same,relative viability,Seliciclib; 8 µM,0.81
same,relative viability,Seliciclib + Tozasertib; first compound 0.08 µM,0.414
same,relative viability,Seliciclib + Tozasertib; first compound 0.253 µM,0.317
same,relative viability,Seliciclib + Tozasertib; first compound 0.8 µM,0.363
same,relative viability,Seliciclib + Tozasertib; first compound 2.53 µM,0.418
same,relative viability,Seliciclib + Tozasertib; first compound 8 µM,0.414
same,relative viability,Seliciclib + Foretinib; first compound 0.08 µM,0.91
same,relative viability,Seliciclib + Foretinib; first compound 0.253 µM,0.773
same,relative viability,Seliciclib + Foretinib; first compound 0.8 µM,0.716
same,relative viability,Seliciclib + Foretinib; first compound 2.53 µM,0.754
same,relative viability,Seliciclib + Foretinib; first compound 8 µM,0.864
same,relative viability,Seliciclib + Dasatinib; first compound 0.08 µM,0.562
same,relative viability,Seliciclib + Dasatinib; first compound 0.253 µM,0.479
same,relative viability,Seliciclib + Dasatinib; first compound 0.8 µM,0.498
same,relative viability,Seliciclib + Dasatinib; first compound 2.53 µM,0.53
same,relative viability,Seliciclib + Dasatinib; first compound 8 µM,0.603
same,relative viability,Seliciclib + Luminespib; first compound 0.08 µM,0.66
same,relative viability,Seliciclib + Luminespib; first compound 0.253 µM,0.367
same,relative viability,Seliciclib + Luminespib; first compound 0.8 µM,0.568
same,relative viability,Seliciclib + Luminespib; first compound 2.53 µM,0.558
same,relative viability,Seliciclib + Luminespib; first compound 8 µM,0.512
same,relative viability,Seliciclib + OSI-027; first compound 0.08 µM,0.425
same,relative viability,Seliciclib + OSI-027; first compound 0.253 µM,0.449
same,relative viability,Seliciclib + OSI-027; first compound 0.8 µM,0.396
same,relative viability,Seliciclib + OSI-027; first compound 2.53 µM,0.415
same,relative viability,Seliciclib + OSI-027; first compound 8 µM,0.415
same,relative viability,Seliciclib + Phenformin; first compound 0.08 µM,0.609
same,relative viability,Seliciclib + Phenformin; first compound 0.253 µM,0.545
same,relative viability,Seliciclib + Phenformin; first compound 0.8 µM,0.502
same,relative viability,Seliciclib + Phenformin; first compound 2.53 µM,0.507
same,relative viability,Seliciclib + Phenformin; first compound 8 µM,0.538
NCI-H1299,relative viability,Seliciclib; 0.08 µM,0.959
same,relative viability,Seliciclib; 0.253 µM,1.12
same,relative viability,Seliciclib; 0.8 µM,1.03
same,relative viability,Seliciclib; 2.53 µM,1.02
same,relative viability,Seliciclib; 8 µM,1.03
same,relative viability,Seliciclib + Foretinib; first compound 0.08 µM,1.11
same,relative viability,Seliciclib + Foretinib; first compound 0.253 µM,1.2
same,relative viability,Seliciclib + Foretinib; first compound 0.8 µM,1.08
same,relative viability,Seliciclib + Foretinib; first compound 2.53 µM,1.07
same,relative viability,Seliciclib + Foretinib; first compound 8 µM,1.09
same,relative viability,Seliciclib + Pictilisib; first compound 0.08 µM,0.792
same,relative viability,Seliciclib + Pictilisib; first compound 0.253 µM,0.765
same,relative viability,Seliciclib + Pictilisib; first compound 0.8 µM,0.72
same,relative viability,Seliciclib + Pictilisib; first compound 2.53 µM,0.841
same,relative viability,Seliciclib + Pictilisib; first compound 8 µM,0.656
same,relative viability,Seliciclib + Olaparib; first compound 0.08 µM,0.967
same,relative viability,Seliciclib + Olaparib; first compound 0.253 µM,1.08
same,relative viability,Seliciclib + Olaparib; first compound 0.8 µM,0.957
same,relative viability,Seliciclib + Olaparib; first compound 2.53 µM,0.949
same,relative viability,Seliciclib + Olaparib; first compound 8 µM,0.954
same,relative viability,Seliciclib + Lapatinib; first compound 0.08 µM,0.953
same,relative viability,Seliciclib + Lapatinib; first compound 0.253 µM,1.06
same,relative viability,Seliciclib + Lapatinib; first compound 0.8 µM,0.997
same,relative viability,Seliciclib + Lapatinib; first compound 2.53 µM,0.962
same,relative viability,Seliciclib + Lapatinib; first compound 8 µM,0.948
same,relative viability,Seliciclib + Linsitinib; first compound 0.08 µM,0.981
same,relative viability,Seliciclib + Linsitinib; first compound 0.253 µM,1.14
same,relative viability,Seliciclib + Linsitinib; first compound 0.8 µM,1.09
same,relative viability,Seliciclib + Linsitinib; first compound 2.53 µM,0.956
same,relative viability,Seliciclib + Linsitinib; first compound 8 µM,1
same,relative viability,Seliciclib + Crizotinib; first compound 0.08 µM,0.983
same,relative viability,Seliciclib + Crizotinib; first compound 0.253 µM,1.07
same,relative viability,Seliciclib + Crizotinib; first compound 0.8 µM,0.935
same,relative viability,Seliciclib + Crizotinib; first compound 2.53 µM,0.993
same,relative viability,Seliciclib + Crizotinib; first compound 8 µM,0.943
same,relative viability,Seliciclib + Bortezomib; first compound 0.08 µM,0.995
same,relative viability,Seliciclib + Bortezomib; first compound 0.253 µM,1.1
same,relative viability,Seliciclib + Bortezomib; first compound 0.8 µM,0.985
same,relative viability,Seliciclib + Bortezomib; first compound 2.53 µM,1.04
same,relative viability,Seliciclib + Bortezomib; first compound 8 µM,0.992
same,relative viability,Seliciclib + Alpelisib; first compound 0.08 µM,1.02
same,relative viability,Seliciclib + Alpelisib; first compound 0.253 µM,1.17
same,relative viability,Seliciclib + Alpelisib; first compound 0.8 µM,1.1
same,relative viability,Seliciclib + Alpelisib; first compound 2.53 µM,1.08
same,relative viability,Seliciclib + Alpelisib; first compound 8 µM,0.986
same,relative viability,Seliciclib + Navitoclax; first compound 0.08 µM,0.996
same,relative viability,Seliciclib + Navitoclax; first compound 0.253 µM,1.14
same,relative viability,Seliciclib + Navitoclax; first compound 0.8 µM,1.02
same,relative viability,Seliciclib + Navitoclax; first compound 2.53 µM,1.03
same,relative viability,Seliciclib + Navitoclax; first compound 8 µM,1
